Measured values reported in patent publication US12241085B2, “Human pluripotent stem cell derived neurodegenerative disease models on a microfluidic chip” (priority 2018, dated 2025).

How the values were obtained:
[1] = as stated for the marketed drug; cited from earlier work
[2] = test system: iBMECs co-cultured with primary human astrocytes and pericytes; experiment: TNFα perfusion of blood compartment of organ-chip with iBMECs, astrocytes and pericytes; type: cell-based; conditions: 10 or 100 ng/ml overnight in blood compartment
Description: While astrocytes and iBMECs can remain in their respective channels, astrocytes processes protruded through the pores to form direct cell-to-cell contact with the iBMECs, mimicking the astrocyte-end-feet observed in vivo.
In order to quantify the percentage of vascular surface covered with astrocyte protrusions (end-feet like structures), the vascular surface of the are washed in DMEM (without FBS) and stained with the fluorescently labeled wheat germ agglutinin (WGA-647 Invitrogen), a […] able to bind to the vascular glycocalyx (DOI: 10.1002jemt.22602). After 15 minutes at room temperature, chips were rinsed twice with fresh DMEM, fixed in 2% PFA for 20 minutes at room temperature and stained for the astrocyte marker GFAP (Abcam). Following incubation with the anti-mouse secondary antibody (Invitrogen, Alexa Fluor 488) and HOECHS (Abcam) chips were washed in PBS and imaged via confocal microscopy (Zeiss LSM850).
The area underneath the porous membrane was localized using the WGA-647 signal (that stained the whole endothelial surface) and the nuclear fluorescence signal (HOECHST) of endothelial cells. Then, five random areas of each chip were imaged using the GFAP fluorescent (488) signal using a 10× objective (Zeiss). ImageJ software was used to subtract background and then convert the digital signal detected in the GFAP channel into a binary image. Finally, percentage of signal coverage was computed from the binary image as the ratio of bright pixels to the total number of pixels in the image. Image processing and quantification was performed with an automatic macro compiled in ImageJ in order to ensure unbiased signal measurements. Numerical values were collected and statistically analyzed using Graphpad Prism V7.

Row | Compound | known BBB permeability [1] | blood-to-brain leakage of dextran after vascular stimulation [2] | astrocyte end-feet-like structures covering the vascular surface ([2]; vs control) | astrocyte morphology ([2]; vs control)
1 | CC[C@@H](C(N)=O)N1CCCC1=O [Levetiracetam] | can efficiently penetrate the BBB |  |  | 
2 | TNFα |  | increase in blood-to-brain leakage | decrease in end-feet-like structures | change in astrocyte morphology
